Data on 24 compounds can be found in patent publication US7868013B2, “Cycloalkyl substituted pyrimidinediamine compounds and their uses” (Rigel Pharmaceuticals, Inc., priority 2004, dated 2011).

Where two headings read alike, the source gives them in different places. Bounds are passed on as bounds.

One assay relates to A549 (lung carcinoma). Put plainly: In vitro antiproliferation assay, A549 cells (TABLE 1 6 point assay; TABLE 2). The settings on record: Homo sapiens. In kind it is cell-based. How it is done: (§1) Certain compounds were tested against other cell types for their ability to inhibit proliferation in standard antiproliferation assays.
The test system of assay [1] is H1299 (non-small cell lung carcinoma). Put plainly: In vitro antiproliferation assay, H1299 cells (TABLE 1 6 point assay; TABLE 2). The class given is cell-based. Particulars: Homo sapiens. As to the method:
as §1

Where [2] appears, read: A549, A549 cells, 6 point assay, read-out: A549, 6pt (IC50, inhibition of proliferation).
[3] abbreviates: NCI-H1299, H1299 cells, 6 point assay, read-out: H1299, 6pt (IC50, inhibition of proliferation).
Where [4] appears, read: A549, 6 point assay, A549 cells, read-out: IC50, A549 cells.
[5] abbreviates: NCI-H1299, 6 point assay, H1299 cells, read-out: IC50, H1299 cells.

For the compound `CS(=O)(=O)N1CCc2cc(Nc3ncc(F)c(NC4C5CCC(C5)C4C(=O)NC4CC4)n3)ccc21` (racemic) [compound 180, Racemic-(2-exo,3-exo)-N4-[3-cyclopropylaminocarbonylbicyclo[2.2.1]hept-2-yl)-5-fluoro-N2-[1-methylsulfonyl-2,3-dihydro-indol-5-yl]-2,4-pyrimidinediamine], the IC50 (with A549 (lung carcinoma) (setting [2]); in assay [1] (setting [3])) was ≤ 100 nM each time.

As to `CN1CCN(c2ccc(Nc3ncc(F)c(NC4C5C=CC(C5)C4C(N)=O)n3)cc2F)CC1` (racemic) [compound 239, Racemic-(2-exo,3-exo)-N4-(3-aminocarbonylbicyclo[2.2.1]hept-5-en-2-yl)-5-fluoro-N2-[3-fluoro-4-(4-methylpiperazin-1-yl)phenyl]-2,4-pyrimidinediamine], the IC50 (in the assay on A549 (lung carcinoma) (setting [4]); in assay [1] (setting [5])) was ≤ 100 nM in each case.

Regarding `CN1CCC(c2ccc(Nc3ncc(F)c(N[C@H]4[C@@H](C(N)=O)[C@@H]5C=C[C@H]4C5)n3)cc2)CC1` [compound 137, (1R,2R,3S,4S)-N4-(3-aminocarbonylbicyclo[2.2.1]hept-5-en-2-yl)-5-fluoro-N2-[4-(1-methylpiperidin-4-yl)phenyl]-2,4-pyrimidinediamine], the IC50 (in the assay on A549 (lung carcinoma) (setting [2]); in assay [1] (setting [3])) was ≤ 100 nM in each case.

As for `CN1CCN(c2cccc(Nc3ncc(F)c(NC4C5C=CC(C5)C4C(N)=O)n3)c2)CC1` (racemic) [compound 231, Racemic-(2-exo,3-exo)-N4-(3-aminocarbonylbicyclo[2.2.1]hept-5-en-2-yl)-5-fluoro-N2-[3-(4-methylpiperazin-1-yl)]phenyl-2,4-pyrimidinediamine], the IC50 (with A549 (lung carcinoma) (setting [4]); in assay [1] (setting [5])) was ≤ 100 nM each time.

On to `CN1CCC(c2cccc(Nc3ncc(F)c(NC4C5C=CC(C5)C4C(N)=O)n3)c2)CC1` (racemic) [compound 268, Racemic-(2-exo,3-exo)-N4-(3-aminocarbonylbicyclo[2.2.1]hept-5-en-2-yl)-5-fluoro-N2-[3-(1-methylpiperidin-4-yl)phenyl]-2,4-pyrimidinediamine], for which the IC50 (in the assay on A549 (lung carcinoma) (setting [4]); in assay [1] (setting [5])) was ≤ 100 nM each time.

`Cc1cc(Nc2ncc(F)c(NC3C4C=CC(C4)C3C(=O)NC(C)C)n2)ccc1N1CCN(C)CC1` (racemic) [compound 162]: the IC50 (in the assay on A549 (lung carcinoma) (setting [2]); in assay [1] (setting [3])) was ≤ 100 nM in each case.

As for `COC(=O)[C@H]1CCC[C@@H]1Nc1nc(Nc2ccc(N3CCN(C)CC3)c(C)c2)ncc1F` [compound 208, (1S,2S)-5-fluoro-N4-(2-methoxycarbonylcyclopent-1-yl)-N2-[3-methyl-4-(4-methylpiperazino)phenyl]-2,4-pyrimidinediamine], the IC50 (with A549 (lung carcinoma) (setting [4]); in assay [1] (setting [5])) was 1000 to 10000 nM each time.

With `Cc1cc(Nc2ncc(F)c(N[C@@H]3CC=CC[C@H]3C(N)=O)n2)ccc1N1CCN(C)CC1` (racemic) [compound 229, Racemic-N4-(2-aminocarbonylcyclohex-4-ene-1-yl)-5-fluoro-N2-[3-methyl-4-(4-methylpiperazin-1-yl)phenyl]-2,4-pyrimidinediamine], the IC50 (in the assay on A549 (lung carcinoma) (setting [4]); in assay [1] (setting [5])) was > 10000 nM each time.

As to `CN1CCC(Oc2ccc(Nc3ncc(F)c(N[C@H]4[C@@H](C(N)=O)[C@@H]5C=C[C@H]4C5)n3)cc2)CC1` [compound 146, (1R,2R,3S,4S)-N4-(3-Aminocarbonylbicyclo[2.2.1]hept-5-en-2-yl)-5-fluoro-N2-[4-(1-methylpiperidin-4-yloxy)phenyl]-2,4-pyrimidinediamine], the IC50 (in the assay with A549 (lung carcinoma) (setting [2]); in assay [1] (setting [3])) was ≤ 100 nM each time.

Take `CCS(=O)(=O)N1CCN(c2ccc(Nc3ncc(F)c(NC4C5C=CC(C5)C4C(N)=O)n3)cc2C)CC1` (racemic) [compound 261, Racemic-(2-exo,3-exo)-N4-(3-aminocarbonylbicyclo[2.2.1]hept-5-en-2-yl)-N2-[4-(4-ethylsulfonylpiperazin-1-yl)-3-methylphenyl]-5-fluoro-2,4-pyrimidinediamine]: the IC50 (with A549 (lung carcinoma) (setting [4]); in assay [1] (setting [5])) was ≤ 100 nM each time.

Regarding `NC(=O)C1C2C=CC(C2)C1Nc1nc(Nc2ccc(C3CCNCC3)cc2)ncc1F` (racemic) [compound 264, Racemic-(2-exo,3-exo)-N4-(3-aminocarbonylbicyclo[2.2.1]hept-5-en-2-yl)-5-fluoro-N2-[4-(piperidin-4-yl)phenyl]-2,4-pyrimidinediamine], the IC50 with A549 (lung carcinoma) (setting [4]) was ≤ 100 nM; in assay [1] (setting [5]), 100 to 1000 nM.

As to `Cc1cc(Nc2ncc(F)c(N[C@H]3[C@@H](C(=O)NC4CCC4)[C@@H]4C=C[C@H]3C4)n2)ccc1N1CCN(C)CC1` [compound 192, (1R,2R,3S,4S)-N4-[3-(N-Cyclobutyl)aminocarbonylbicyclo[2.2.1]hept-5-en-2-yl]-5-fluoro-N2-[3-methyl-4-(4-methylpiperazin-1-yl)phenyl]-2,4-pyrimidinediamine], the IC50 (with A549 (lung carcinoma) (setting [2]); in assay [1] (setting [3])) was ≤ 100 nM throughout.

Take `Cc1cc(Nc2ncc(F)c(NC3(C(=O)O)CCCC3)n2)ccc1N1CCN(C)CC1` [compound 246, N4-(1-Carboxycyclopent-1-yl)-5-fluoro-N2-[3-methyl-4-(4-methylpiperazin-1-yl)phenyl]-2,4-pyrimidinediamine]: the IC50 (with A549 (lung carcinoma) (setting [4]); in assay [1] (setting [5])) was > 10000 nM throughout.

As to `Cc1cc(Nc2ncc(F)c(N[C@@H]3CCC[C@H]3C(=O)O)n2)ccc1N1CCN(C)CC1` [compound 211, (1R,2R)-5-fluoro-N4-(2-hydroxycarbonylcyclopent-1-yl)-N2-[3-methyl-4-(4-methylpiperazino)phenyl]-2,4-pyrimidinediamine], the IC50 (in the assay on A549 (lung carcinoma) (setting [4]); in assay [1] (setting [5])) was > 10000 nM in each case.

Take `Cc1cc(Nc2ncc(F)c(NC3CCCC3C(N)=O)n2)cc(C)c1O` (stereo not drawn) [compound 213, (cis)-N4-(2-Carboxamidocyclopent-1-yl)-N2-(3,5-dimethyl-4-hydroxyphenyl)-5-fluoro-2,4-pyrimidinediamine]: the IC50 (in the assay on A549 (lung carcinoma) (setting [4]); in assay [1] (setting [5])) was 100 to 1000 nM throughout.

For `Cc1cc(Nc2ncc(F)c(NC3C4CCC(C4)C3C(=O)NC3CC3)n2)ccc1N1CCN(C)CC1` (racemic) [compound 252, Racemic-(2-exo,3-exo)-N4-(3-N-cyclopropylaminocarbonylbicyclo[2.2.1]hept-2-yl)-5-fluoro-N2-[3-methyl-4-(4-methylpiperazin-1-yl)phenyl]-2,4-pyrimidinediamine], the IC50 (in the assay with A549 (lung carcinoma) (setting [4]); in assay [1] (setting [5])) was ≤ 100 nM each time.

Turning to `CS(=O)(=O)N1CCc2cc(Nc3ncc(F)c(N[C@H]4[C@@H](C(N)=O)[C@@H]5C=C[C@H]4C5)n3)ccc21` [compound 188, (1R,2R,3S,4S)-N4-(3-Aminocarbonylbicyclo[2.2.1]hept-5-en-2-yl)-5-fluoro-N2-[1-methylsulfonyl-2,3-dihydro-indol-5-yl]-2,4-pyrimidinediamine], the IC50 (in the assay with A549 (lung carcinoma) (setting [2]); in assay [1] (setting [3])) was ≤ 100 nM each time.

For the compound `NC(=O)[C@@H]1CCC[C@@H]1Nc1nc(Nc2ccc3c(c2)CCN3)ncc1F` (racemic) [compound 157, Racemic-cis-N4-(2-aminocarbonylcyclopent-1-yl)-N2-(2,3-dihydroindol-5-yl)-5-fluoro-2,4-pyrimidinediamine], the IC50 (in the assay on A549 (lung carcinoma) (setting [2]); in assay [1] (setting [3])) was 1000 to 10000 nM throughout.

For `Cc1cc(Nc2ncc(F)c(N[C@H]3CCC[C@H]3C(N)=O)n2)ccc1N1CC2CC1CN2C` (mixture of isomers) [compound 282, Racemic-cis-N4-(2-aminocarbonylcyclopent-1-yl)-5-fluoro-N2-[3-methyl-4-(5-methyl-(1S,4S)-2,5-diazabicyclo[2.2.1]heptan-2-yl)phenyl]-2,4-pyrimidinediamine], the IC50 (in the assay on A549 (lung carcinoma) (setting [4]); in assay [1] (setting [5])) was 100 to 1000 nM throughout.

`Cc1cc(Nc2ncc(F)c(N[C@@H]3[C@H](C(=O)NC4CC4)[C@H]4C=C[C@@H]3C4)n2)ccc1N1CCN(C)CC1` [compound 191, (1S,2S,3R,4R)-N4-[3-(N-Cyclopropyl)aminocarbonylbicyclo[2.2.1]hept-5-en-2-yl]-5-fluoro-N2-[3-methyl-4-(4-methylpiperazin-1-yl)phenyl]-2,4-pyrimidinediamine]: the IC50 was 100 to 1000 nM in the assay on A549 (lung carcinoma) (setting [2]) and 1000 to 10000 nM in assay [1] (setting [3]).

On to `NC(=O)C1CCCC1Nc1nc(Nc2cccc(N3CCOCC3)c2)ncc1F` (stereo not drawn) [compound 200, N4-(2-Carboxamidocyclopentyl)-5-fluoro-N2-(3-morpholinophenyl)-2,4-pyrimidinediamine], for which the IC50 was in the range of 100 to 1000 nM in the assay on A549 (lung carcinoma) (setting [4]) and 1000 to 10000 nM in assay [1] (setting [5]).

As to `CN(C)CCN1CCc2cc(Nc3ncc(F)c(N[C@H]4[C@@H](C(N)=O)[C@@H]5C=C[C@H]4C5)n3)ccc21` [compound 186, (1R,2R,3S,4S)-N4-[3-Aminocarbonylbicyclo[2.2.1]hept-5-en-2-yl]-N2-[1-(2-dimethylaminoethyl)-2,3-dihydroindol-5-yl]-5-fluoro-2,4-pyrimidinediamine], the IC50 (in the assay on A549 (lung carcinoma) (setting [2]); in assay [1] (setting [3])) was ≤ 100 nM each time.

`CN(C)CCn1ccc2cc(Nc3ncc(F)c(NC4C5C=CC(C5)C4C(=O)NC4CC4)n3)ccc21` (racemic) [compound 175, Racemic-(2-exo,3-exo)-N4-[3-cyclopropylaminocarbonylbicyclo[2.2.1]hept-5-en-2-yl)-N2-[1-(2-dimethylaminoethyl)indol-5-yl]-5-fluoro-2,4-pyrimidinediamine]: the IC50 (in the assay on A549 (lung carcinoma) (setting [2]); in assay [1] (setting [3])) was ≤ 100 nM in each case.

On to `Cc1cc(Nc2ncc(F)c(N[C@H]3[C@@H](C(N)=O)[C@@H]4C=C[C@H]3C4)n2)ccc1N1CCN(CCO)CC1` [compound 116, (1R,2R,3S,4S)-N4-(3-Aminocarbonylbicyclo[2.2.1]hept-5-en-2-yl)-5-fluoro-N2-{4-[4-(2-hydroxyethyl)piperazin-1-yl]-3-methylphenyl}-2,4-pyrimidinediamine], for which the IC50 (with A549 (lung carcinoma) (setting [2]); in assay [1] (setting [3])) was ≤ 100 nM throughout.
